Measured values published in a compilation of properties of binary mixtures (doi:10.1016/j.molliq.2017.05.115).

Test: xn = mol fraction of the nth substance listed
Details: 101 kPa

CC[n+]1ccn(C)c1.COS(=O)(=O)[O-] + CCCCCCCO
speed of sound [m/s]
Details | x1 = 0.0836 | x1 = 0.1703 | x1 = 0.2602 | x1 = 0.3537 | x1 = 0.4508 | x1 = 0.5518 | x1 = 0.657 | x1 = 0.7665 | x1 = 0.8808
298.15 K | 1330.6 | 1341.3 | 1357.7 | 1380.4 | 1410.5 | – | 1499.2 | – | 1646.1
303.15 K | 1319.6 | 1330.5 | 1346.9 | 1369.7 | 1399.9 | 1438.8 | 1488.8 | – | 1636.2
308.15 K | 1299.7 | 1310.5 | 1327 | – | 1380.2 | 1419.4 | 1469.8 | 1534.7 | 1619.5
